Laboratory results: patent publication US9266869B2, “Substituted dialkyl(oxido)-lambda4-sulfanylidene nicotinamide derivatives as kinase inhibitors” (Allergan, Inc., priority 2013, dated 2016)

Assays:
PDGFRβ [1] = target: T1, PDGFRβ (Homo sapiens (Human), UniProt P09619); assay: PDGFRβ Cellular Assay (PDGF-induced intracellular calcium, FLIPR, NHDF-Ad); assay type: cell-based; conditions: PDGF-BB stimulation (30 ng/mL)
Experimental: (§1) Automated FLIPR (Fluorometric Imaging Plate Reader) technology was used to screen for inhibitors of PDGF-induced increases in intracellular calcium levels in fluorescent dye loaded endothelial cells. NHDF-Ad (Normal Human Dermal Fibroblasts, Adult; Lonza) were seeded in 384-well fibronectin coated black-walled plates overnight @ 37° C./5% CO2. Cells were loaded with calcium indicator Fluo-4 for 45 minutes at 37° C. Cells were washed 2 times (Elx405, Biotek Instruments) to remove extracellular dye. For screening, cells were pre-incubated with test agents for 30 minutes, at a single concentration (10 uM) or at concentrations ranging from 0.0001 to 10.0 uM followed by PDGF-BB stimulation (30 ng/mL). Changes in fluorescence at 516 nm were measured simultaneously in all 384 wells using a cooled CCD camera. Data were generated by determining max-min fluorescence levels for unstimulated, stimulated, and drug treated samples. IC50 values for test compounds were calculated from % inhibition of PDGF-BB stimulated responses in the absence of inhibitor.
Target sequence in this assay (P09619 33-1106): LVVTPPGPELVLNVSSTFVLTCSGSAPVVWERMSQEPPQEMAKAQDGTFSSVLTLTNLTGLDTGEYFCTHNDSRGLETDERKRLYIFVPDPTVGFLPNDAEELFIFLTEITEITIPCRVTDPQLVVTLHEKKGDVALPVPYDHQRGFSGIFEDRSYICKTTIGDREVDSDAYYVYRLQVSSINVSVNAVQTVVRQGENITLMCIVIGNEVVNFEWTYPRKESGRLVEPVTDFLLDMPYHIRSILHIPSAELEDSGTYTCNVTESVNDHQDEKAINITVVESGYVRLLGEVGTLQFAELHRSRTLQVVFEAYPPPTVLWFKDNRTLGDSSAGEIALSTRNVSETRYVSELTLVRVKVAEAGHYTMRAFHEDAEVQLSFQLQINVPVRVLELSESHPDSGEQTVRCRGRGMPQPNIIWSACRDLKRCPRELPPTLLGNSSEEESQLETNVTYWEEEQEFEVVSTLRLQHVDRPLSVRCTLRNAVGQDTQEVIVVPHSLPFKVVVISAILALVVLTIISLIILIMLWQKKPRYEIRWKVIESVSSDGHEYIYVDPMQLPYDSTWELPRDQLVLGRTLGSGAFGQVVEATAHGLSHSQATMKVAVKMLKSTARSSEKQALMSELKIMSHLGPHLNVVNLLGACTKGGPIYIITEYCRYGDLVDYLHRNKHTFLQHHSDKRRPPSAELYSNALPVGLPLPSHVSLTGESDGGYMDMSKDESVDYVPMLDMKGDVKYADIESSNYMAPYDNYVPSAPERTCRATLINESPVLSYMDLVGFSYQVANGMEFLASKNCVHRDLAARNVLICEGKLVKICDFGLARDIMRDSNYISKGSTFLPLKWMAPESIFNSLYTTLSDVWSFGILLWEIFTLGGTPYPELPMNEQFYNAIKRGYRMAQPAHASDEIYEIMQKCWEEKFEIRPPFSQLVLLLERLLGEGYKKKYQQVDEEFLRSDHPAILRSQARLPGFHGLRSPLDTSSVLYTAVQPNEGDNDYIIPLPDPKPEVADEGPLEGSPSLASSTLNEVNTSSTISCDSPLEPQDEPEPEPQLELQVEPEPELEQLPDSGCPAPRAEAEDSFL

PDGFRβ [2] = target: T1, PDGFRβ; assay: PDGFRβ Kinase Assay; assay type: biochemical; conditions: purified cytoplasmic domain PDGFR-b protein, 36 μM ATP; read-out: PDGFRβ Enzyme Assay (IC50 nM)
Experimental: Biochemical PDGFRβ kinase assays were performed in 96 well microtiter plates that were coated overnight with 75 μg of poly-Glu-Tyr (4:1) in 10 mM Phosphate Buffered Saline (PBS), pH 7.4.
(§2) PBS-T prior to starting the reaction. Reactions were carried out in 100 μL reaction volumes containing 36 μM ATP in kinase buffer (50 mM Hepes buffer pH 7.4, 20 mM MgCl2, 0.1 mM MnCl2 and 0.2 mM Na3VO4). […] Reactions were initiated by the addition 20 ul per well of kinase buffer containing 200-300 ng purified cytoplasmic domain PDGFR-b protein (Millipore). Following a 60 minute incubation at 30° C., the reactions were washed 2 mls per well PBS-T. 100 μl of a monoclonal anti-phosphotyrosine antibody-peroxidase conjugate diluted 1:10,000 in PBS-T was added to the wells for 30 minutes. Following a 2 mls per well wash with PBS-Tween-20, 100 μl of O-Phenylenediamine Dihydrochloride in phosphate-citrate buffer, containing urea hydrogen peroxide, was added to the wells for 7-10 minutes as a colorimetric substrate for the peroxidase. […] IC50 values for compound inhibition were calculated directly from graphs of optical density (arbitrary units) versus compound concentration following subtraction of blank values.
Target sequence in this assay (P09619 554-1106): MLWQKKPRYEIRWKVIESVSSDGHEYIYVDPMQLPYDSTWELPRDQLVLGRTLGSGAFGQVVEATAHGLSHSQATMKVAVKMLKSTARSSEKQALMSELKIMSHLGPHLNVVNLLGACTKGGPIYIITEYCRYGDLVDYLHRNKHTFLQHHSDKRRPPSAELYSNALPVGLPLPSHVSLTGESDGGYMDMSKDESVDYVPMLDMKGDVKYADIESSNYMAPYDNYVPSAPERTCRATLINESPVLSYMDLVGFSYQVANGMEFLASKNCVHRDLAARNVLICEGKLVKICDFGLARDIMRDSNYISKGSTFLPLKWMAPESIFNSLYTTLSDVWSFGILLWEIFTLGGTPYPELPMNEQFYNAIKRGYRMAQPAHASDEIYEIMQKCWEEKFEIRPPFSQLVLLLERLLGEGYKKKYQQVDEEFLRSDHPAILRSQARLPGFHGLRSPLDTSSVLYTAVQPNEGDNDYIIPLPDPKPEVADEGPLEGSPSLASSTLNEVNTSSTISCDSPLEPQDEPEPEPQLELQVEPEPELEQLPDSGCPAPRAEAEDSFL

VEGFR2 (KDR) = VEGFR2 (KDR) (Homo sapiens (Human), UniProt P35968); assay: VEGFR2 Kinase Assay; assay type: biochemical; conditions: purified cytoplasmic domain KDR protein, 2.7 μM ATP; read-out: VEGFR2 Enzyme Assay (IC50 nM)
Experimental: as §2, with “VEGFR2 Kinase Assay Biochemical KDR kinase assays were performed in 96 well microtiter plates that were coated overnight with 75 μg/well of poly-Glu-[…]:1) in 10 mM Phosphate Buffered Saline (PBS), pH 7.4. […]” for “PBS-T prior to starting the reaction.”, “2.7” for “36”, “KDR” for “PDGFR-b”, “(BPS Bioscience, San Diego, Calif.).” for “(Millipore).”, “15” for “60”, “0-Phenylenediamine” for “O-Phenylenediamine”

VEGFR2 = VEGFR2 (Homo sapiens (Human), UniProt P35968); assay: VEGFR2 Cellular Assay (VEGF induced intracellular calcium, FLIPR, HUVEC); assay type: cell-based; conditions: VEGF165 stimulation (10 ng/mL)
Experimental: as §1, with “VEGFR2 Cellular Assay Automated” for “Automated”, “of VEGF induced” for “of PDGF-induced”, “cells. HUVEC (human umbilical vein endothelial cells) (Clonetics)” for “cells. NHDF-Ad (Normal Human Dermal Fibroblasts, Adult; Lonza)”, “by VEGF165” for “by PDGF-BB”, “stimulation (10” for “stimulation (30”, “of VEGF” for “of PDGF-BB”

VEGF permeability model = assay: VEGF permeability model, intravitreal injection; assay type: in vivo; conditions: dosed by intravitreal injection

VEGFR2, sequence (P35968 20-1356): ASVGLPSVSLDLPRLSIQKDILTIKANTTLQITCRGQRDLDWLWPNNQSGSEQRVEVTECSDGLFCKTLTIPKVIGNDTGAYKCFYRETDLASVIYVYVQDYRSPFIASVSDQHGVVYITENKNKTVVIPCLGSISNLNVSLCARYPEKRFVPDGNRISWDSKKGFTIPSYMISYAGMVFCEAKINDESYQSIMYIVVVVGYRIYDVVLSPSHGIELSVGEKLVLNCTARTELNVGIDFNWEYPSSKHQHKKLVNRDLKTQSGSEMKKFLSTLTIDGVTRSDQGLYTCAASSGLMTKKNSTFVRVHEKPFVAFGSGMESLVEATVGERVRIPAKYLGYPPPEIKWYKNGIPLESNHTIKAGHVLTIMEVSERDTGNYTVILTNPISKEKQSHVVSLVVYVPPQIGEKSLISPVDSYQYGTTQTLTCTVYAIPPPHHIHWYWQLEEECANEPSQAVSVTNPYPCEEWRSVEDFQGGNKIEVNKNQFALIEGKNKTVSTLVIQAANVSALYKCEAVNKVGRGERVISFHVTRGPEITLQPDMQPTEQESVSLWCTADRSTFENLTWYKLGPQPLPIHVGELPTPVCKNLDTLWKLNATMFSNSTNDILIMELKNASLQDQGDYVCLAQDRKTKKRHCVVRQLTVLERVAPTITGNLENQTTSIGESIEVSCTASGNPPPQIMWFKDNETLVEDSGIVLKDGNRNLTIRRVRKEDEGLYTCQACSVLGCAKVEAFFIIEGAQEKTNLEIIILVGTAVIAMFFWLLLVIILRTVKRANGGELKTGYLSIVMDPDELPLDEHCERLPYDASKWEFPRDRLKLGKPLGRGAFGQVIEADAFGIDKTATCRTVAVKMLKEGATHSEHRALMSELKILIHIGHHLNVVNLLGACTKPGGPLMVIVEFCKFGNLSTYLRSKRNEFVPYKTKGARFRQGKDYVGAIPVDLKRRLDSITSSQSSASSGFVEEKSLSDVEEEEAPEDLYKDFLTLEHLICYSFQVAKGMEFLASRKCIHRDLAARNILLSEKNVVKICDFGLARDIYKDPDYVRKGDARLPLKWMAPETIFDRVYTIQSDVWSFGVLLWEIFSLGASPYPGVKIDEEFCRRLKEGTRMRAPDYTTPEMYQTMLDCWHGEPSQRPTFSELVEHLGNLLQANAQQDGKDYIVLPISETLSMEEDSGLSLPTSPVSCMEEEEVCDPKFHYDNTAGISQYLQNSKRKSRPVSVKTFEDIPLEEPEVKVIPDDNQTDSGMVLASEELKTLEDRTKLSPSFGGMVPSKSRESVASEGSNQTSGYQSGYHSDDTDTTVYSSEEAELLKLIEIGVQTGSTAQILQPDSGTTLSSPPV
VEGFR2 (KDR), sequence (P35968 786-1356): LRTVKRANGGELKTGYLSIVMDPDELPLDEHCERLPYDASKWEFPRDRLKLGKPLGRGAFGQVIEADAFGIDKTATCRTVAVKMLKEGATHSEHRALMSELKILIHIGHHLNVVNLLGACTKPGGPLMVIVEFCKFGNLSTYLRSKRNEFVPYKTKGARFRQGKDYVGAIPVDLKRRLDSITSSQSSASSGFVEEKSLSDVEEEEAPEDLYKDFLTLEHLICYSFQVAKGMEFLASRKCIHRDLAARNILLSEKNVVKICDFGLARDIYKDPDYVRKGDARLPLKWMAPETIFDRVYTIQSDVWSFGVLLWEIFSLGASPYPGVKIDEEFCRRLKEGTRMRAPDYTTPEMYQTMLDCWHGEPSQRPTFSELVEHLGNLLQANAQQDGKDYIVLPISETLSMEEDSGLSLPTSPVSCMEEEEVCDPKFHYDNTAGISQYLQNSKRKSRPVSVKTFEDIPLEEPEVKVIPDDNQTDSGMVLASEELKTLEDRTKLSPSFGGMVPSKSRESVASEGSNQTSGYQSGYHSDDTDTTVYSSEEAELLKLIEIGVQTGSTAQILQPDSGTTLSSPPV

Compound: Cc1ccoc1C(=O)Nc1cccc(C#Cc2cc(C(=O)N=S(C)(C)=O)cnc2N)c1 [Example 1, 6-Amino-N-[dimethyl(oxido)-λ^4-sulfanylidene]-5-({3-[(3-methyl-2-furoyl)amino]phenyl}ethynyl)nicotinamide]
- IC50 (PDGFRβ [1]): 11 nM
- IC50 (PDGFRβ [2]): 16 nM
- IC50 (VEGFR2 (KDR)): 6 nM
- IC50 (VEGFR2): 1 nM

Compound: Cc1ccoc1C(=O)Nc1cccc(C#Cc2cncc(C(=O)N=S3(=O)CCCC3)c2)c1 [Example 3, 5-({3-[(3-Methyl-2-furoyl)amino]phenyl}ethynyl)-N-(1-oxidotetrahydro-1H-λ^4-thien-1-ylidene)nicotinamide]
- IC50 (PDGFRβ [1]): 66 nM
- IC50 (PDGFRβ [2]): 34 nM
- IC50 (VEGFR2 (KDR)): 2 nM
- IC50 (VEGFR2): 3 nM

Compound: Cc1ccoc1C(=O)Nc1cccc(C#Cc2cc(C(=O)N=S3(=O)CCCC3)cnc2N)c1 [Example 4, 6-Amino-5-({3-[(3-methyl-2-furoyl)amino]phenyl}ethynyl)-N-(1-oxidotetrahydro-1H-1λ^4-thien-1-ylidene)nicotinamide]
- IC50 (PDGFRβ [1]): 15 nM
- IC50 (PDGFRβ [2]): 30 nM
- IC50 (VEGFR2 (KDR)): 2 nM
- IC50 (VEGFR2): 2 nM

Compound: Cc1ccc(F)c(NC(=O)Nc2cccc(C#Cc3cncc(C(=O)N=S(C)(C)=O)c3)c2)c1 [Example 8, N-[Dimethyl(oxido)-λ^4-sulfanylidene]-5-{[3-({[(2-fluoro-5-methylphenyl)amino]carbonyl}amino)phenyl]ethynyl}nicotinamide]
- IC50 (PDGFRβ [1]): 28 nM
- IC50 (VEGFR2 (KDR)): 3 nM
- IC50 (VEGFR2): 10 nM

Compound: COC(=O)CCCCS(C)(=O)=NC(=O)c1cnc(N)c(C#Cc2cccc(NC(=O)c3occc3C)c2)c1 (centres unmarked) [Example 23, Methyl 5-(N-{[6-amino-5-({3-[(3-methyl-2-furoyl)amino]phenyl}ethynyl)pyridin-3-yl]carbonyl}-S-methylsulfonimidoyl)pentanoate]
- IC50 (PDGFRβ [1]): 31 nM
- IC50 (PDGFRβ [2]): 54 nM
- IC50 (VEGFR2 (KDR)): 7 nM
- in vivo efficacy in the VEGF permeability model (VEGF permeability model): good in vivo efficacy
- IC50 (VEGFR2): 1 nM

Compound: COC(=O)CCCCS(C)(=O)=NC(=O)c1cnc(N)c(C#Cc2cccc(NC(=O)c3cccc(C)c3)c2)c1 (centres unmarked) [Example 26, Methyl 5-(N-{[6-amino-5-({3-[(3-methylbenzoyl)amino]phenyl}ethynyl)pyridin-3-yl]carbonyl}-S-methylsulfonimidoyl)pentanoate]
- IC50 (PDGFRβ [1]): 10 nM
- IC50 (PDGFRβ [2]): 11 nM
- IC50 (VEGFR2 (KDR)): 4 nM
- in vivo efficacy in the VEGF permeability model (VEGF permeability model): good in vivo efficacy
- IC50 (VEGFR2): 1 nM

Compound: COC(=O)CCCCS(C)(=O)=NC(=O)c1cnc(N)c(C#Cc2cccc(NC(=O)c3cc(C(F)(F)F)ccc3F)c2)c1 (centres unmarked) [Example 27, Methyl 5-[N-({6-amino-5-[(3-{[2-fluoro-5-(trifluoromethyl)benzoyl]amino}phenyl)ethynyl]pyridin-3-yl}carbonyl)-S-methylsulfonimidoyl]pentanoate]
- IC50 (PDGFRβ [1]): 19 nM
- IC50 (PDGFRβ [2]): 40 nM
- IC50 (VEGFR2 (KDR)): 10 nM
- IC50 (VEGFR2): 1 nM

Compound: COC(=O)CCCCS(C)(=O)=NC(=O)c1cnc(N)c(C#Cc2cccc(NC(=O)c3cccc(C(F)(F)F)c3)c2)c1 (centres unmarked) [Example 28, Methyl 5-[N-({6-amino-5-[(3-{[3-(trifluoromethyl)benzoyl]amino}phenyl)ethynyl]pyridin-3-yl}carbonyl)-S-methylsulfonimidoyl]pentanoate]
- IC50 (PDGFRβ [1]): 12 nM
- IC50 (PDGFRβ [2]): 9 nM
- IC50 (VEGFR2 (KDR)): 4 nM
- IC50 (VEGFR2): 4 nM

Compound: COC(=O)CCCCS(C)(=O)=NC(=O)c1cnc(N)c(C#Cc2cccc(NC(=O)c3ccc(Cl)c(C(F)(F)F)c3)c2)c1 (centres unmarked) [Example 29, Methyl 5-[N-({6-amino-5-[(3-{[4-chloro-3-(trifluoromethyl)benzoyl]amino}phenyl)ethynyl]pyridin-3-yl}carbonyl)-S-methylsulfonimidoyl]pentanoate]
- IC50 (PDGFRβ [1]): 15 nM
- IC50 (PDGFRβ [2]): 25 nM
- IC50 (VEGFR2 (KDR)): 4 nM
- IC50 (VEGFR2): 6 nM

Compound: COC(=O)CCCCS(C)(=O)=NC(=O)c1cnc(N)c(C#Cc2cccc(NC(=O)c3cccc(OC)c3)c2)c1 (centres unmarked) [Example 30, Methyl 5-(N-{[6-amino-5-({3-[(3-methoxybenzoyl)amino]phenyl}ethynyl)pyridin-3-yl]carbonyl}-S-methylsulfonimidoyl)pentanoate]
- IC50 (PDGFRβ [1]): 9 nM
- IC50 (PDGFRβ [2]): 14 nM
- IC50 (VEGFR2 (KDR)): 5 nM
- in vivo efficacy in the VEGF permeability model (VEGF permeability model): good in vivo efficacy
- IC50 (VEGFR2): 1 nM

Compound: COC(=O)CCCCS(C)(=O)=NC(=O)c1cnc(N)c(C#Cc2cccc(NC(=O)c3ccc(OC)c(OC)c3)c2)c1 (centres unmarked) [Example 31, Methyl 5-(N-{[6-amino-5-({3-[(3,4-dimethoxybenzoyl)amino]phenyl}ethynyl)pyridin-3-yl]carbonyl}-S-methylsulfonimidoyl)pentanoate]
- IC50 (PDGFRβ [1]): 13 nM
- IC50 (PDGFRβ [2]): 38 nM
- IC50 (VEGFR2 (KDR)): 15 nM
- IC50 (VEGFR2): 4 nM

Compound: COC(=O)CCCC[S@](C)(=O)=NC(=O)c1cnc(N)c(C#Cc2cccc(NC(=O)c3occc3C)c2)c1 [Example 32, (S)-methyl 5-(N-{[6-amino-5-({3-[(3-methyl-2-furoyl)amino]phenyl}ethynyl)pyridin-3-yl]carbonyl}-S-methylsulfonimidoyl)pentanoate]
- IC50 (PDGFRβ [1]): 60 nM
- IC50 (PDGFRβ [2]): 31 nM
- IC50 (VEGFR2 (KDR)): 3 nM
- in vivo efficacy in the VEGF permeability model (VEGF permeability model): good in vivo efficacy
- IC50 (VEGFR2): 1 nM

Compound: COC(=O)CCCC[S@@](C)(=O)=NC(=O)c1cnc(N)c(C#Cc2cccc(NC(=O)c3occc3C)c2)c1 [Example 33, (R)-Methyl 5-(N-{[6-amino-5-({3-[(3-methyl-2-furoyl)amino]phenyl}ethynyl)pyridin-3-yl]carbonyl}-S-methylsulfonimidoyl)pentanoate]
- IC50 (PDGFRβ [1]): 86 nM
- IC50 (PDGFRβ [2]): 27 nM
- IC50 (VEGFR2 (KDR)): 6 nM
- in vivo efficacy in the VEGF permeability model (VEGF permeability model): good in vivo efficacy
- IC50 (VEGFR2): 1 nM

Compound: COC(=O)CCCCS(C)(=O)=NC(=O)c1cnc(N)c(C#Cc2cccc(C(=O)Nc3cc(C(C)(C)C)on3)c2)c1 (centres unmarked) [Example 36, Methyl 5-[N-({6-amino-5-[(3-{[(5-tert-butylisoxazol-3-yl)amino]carbonyl}phenyl)ethynyl]pyridin-3-yl}carbonyl)-S-methylsulfonimidoyl]pentanoate]
- IC50 (PDGFRβ [1]): 18 nM
- IC50 (VEGFR2 (KDR)): 10 nM
- IC50 (VEGFR2): 1 nM

Compound: COC(=O)CCCCS(C)(=O)=NC(=O)c1cnc(N)c(C#Cc2cccc(NC(=O)Nc3cccc(C)c3)c2)c1 (centres unmarked) [Example 38, Methyl 5-{N-[(6-amino-5-{[3-({[(3-methylphenyl)amino]carbonyl}amino)phenyl]ethynyl}pyridin-3-yl)carbonyl]-S-methylsulfonimidoyl}pentanoate]
- IC50 (PDGFRβ [1]): 25 nM
- IC50 (PDGFRβ [2]): 13 nM
- IC50 (VEGFR2 (KDR)): 4 nM
